We go through eleven compounds from patent publication US20080194590A1, “4-Piperazinylthieno [2,3-D] Pyrimidine Compounds as Platelet Aggregation Inhibitors” (Pfizer Inc, priority 2005, published 2008).

A word on the pIC50: it is the IC50 on a negative log10 scale, so that one unit is a factor of ten. A word on the pKi: it is −log10 of the Ki, conventionally taken in molar units. The inhibition is the share of the control response that was lost under treatment.

The target in test [1] is T1, P2Y12 receptor (Homo sapiens, UniProt Q9H244). Briefly: Human P2Y12 recombinant cell membrane binding assay with 33P 2MeS-ADP (Assay 3). Also on record: expressed in transfected cells; host or cells: HEK cells. As to conditions: for pIC50 / pKi: HEK cell membranes expressing P2Y12, multiple lines = multiple runs; for inhibition at 10 µM / [33P]-2MeS-ADP Binding to Recombinant Human P2Y12 Membranes (Assay 3) % Inhibition: highest concentration tested 10 μM; for inhibition at 10 µM: read-out: [33P]-2MeS-ADP Binding to Recombinant Human P2Y12 Membranes (Assay 3) % Inhibition. How it is done: 3. Human P2Y12 Recombinant Cell Membrane Binding Assay with ^33P 2MeS-ADP.
T1 sequence (Q9H244 whole entry): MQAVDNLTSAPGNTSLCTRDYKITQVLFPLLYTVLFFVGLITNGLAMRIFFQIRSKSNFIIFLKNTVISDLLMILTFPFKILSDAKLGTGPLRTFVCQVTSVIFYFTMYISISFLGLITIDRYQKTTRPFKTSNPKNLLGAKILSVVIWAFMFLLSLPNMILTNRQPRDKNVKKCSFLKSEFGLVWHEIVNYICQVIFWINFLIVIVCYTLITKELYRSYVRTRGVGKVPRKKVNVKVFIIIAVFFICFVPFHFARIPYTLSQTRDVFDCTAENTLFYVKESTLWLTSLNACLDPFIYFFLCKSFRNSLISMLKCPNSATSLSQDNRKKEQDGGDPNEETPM
The ability of a test compound to bind to the P2Y12 receptor was evaluated in a recombinant cell membrane binding assay. In this competitive binding assay, the test compound competed against a radiolabelled agonist for binding to the P2Y12 receptor, expressed on the cell membrane. Inhibition of binding of the labeled material was measured and correlated to the amount and potency of the test compound. Data from this assay are presented in Table F. This binding assay is a modification of the procedure in Takasaki, J. et. al, Mol. Pharmacol., 2001, Vol. 60, pg. 432.
HEK cells were transfected with the pDONR201P2Y12 vector and cultured in MEM with GlutaMAX I, Earle's salts, 25 mM HEPES (Gibco # 42360-032) containing 10% dialyzed FBS (Gibco # 26400-044), 100 μM nonessential amino acids (Gibco # 11140-050), 1 mM sodium pyruvate (Gibco # 11360-070), 0.05% geneticin (Gibco #10131-027), 3 μg/mL blasticidin (Fluka brand from Sigma # 15205), and 0.5 μg/mL puromycin (Sigma # P-8833).
Confluent cells were washed once with cold DPBS (Gibco # 14190-136). Fresh DPBS was added and the cells were scraped and centrifuged at 500×g for 5 minutes at 4° C. The cell pellets were resuspended in TEE buffer (25 mM Tris, 5 mM EDTA, 5 mM EGTA) containing 1 protease inhibitor cocktail tablet (Roche # 1 873 580) per 50 mL (called TEE+Complete) and can be flash frozen at this point.
In one embodiment, frozen cell pellets were used to prepare the membranes. In that embodiment, the frozen cell pellets were thawed on ice. In another embodiment, cell pellets may be used without flash freezing before moving on to the next step.
Cell pellets were resuspended in TEE buffer+Complete and homogenized in a glass dounce for 12 strokes. The cell suspension was centrifuged at 500×g for 5 minutes at 4° C. The supernatant was saved and centrifuged at 20,000×g for 20 minutes at 4° C. This supernatant was discarded and the cell pellet resuspended in TEE buffer+Complete and homogenized in a glass dounce for 12 strokes. This suspension was centrifuged at 20,000×g for 20 minutes at 4° C. and the supernatant discarded. The pellet was resuspended in assay buffer (50 mM Tris, 100 mM NaCl, 1 mM EDTA) containing one protease inhibitor cocktail tablet per 50 mL, and can be flash frozen as 1 mL aliquots at this point.
Dry compounds were diluted as 10 mM DMSO stocks and tested in a seven-point, three-fold dilution series run in triplicate beginning at 10 μM, final concentration. A 1 mM DMSO intermediate stock was made in a dilution plate and from this the seven dilutions were made to 5× the final concentration in assay buffer containing 0.02% BSA.
To a polypropylene assay plate (Costar # 3365) the following were added: a) 30 μL of assay buffer containing one protease inhibitor cocktail tablet per 50 mL; b) 30 μL of 1 nM ^33P 2MeS-ADP made in assay buffer containing 0.02% BSA and 12.5 mg/mL ascorbic acid; 30 μL of cold 1.5 μM 2MeS-ADP for the positive control wells, or assay buffer containing 0.02% BSA and 12.5 mg/mL ascorbic acid for the negative control wells, or 5× drug dilution; and 60 μL of 1 ug/well membranes.
The plates were incubated at room temperature for 1 hour. The reaction was stopped using a cell harvester to transfer the reaction mixture onto GF/B UniFilter plates (Perkin Elmer # 6005177), and washed three times with wash buffer (50 mM Tris), filtering between each wash. The filter plates were dried for approximately 20 minutes in an oven at 50° C. Back seals were adhered to the filter plates and 25 uL of Microscint 20 scintillation fluid (Perkin Elmer # 6013621) were added. The filter plates were sealed, shaken for 30 minutes, and counted on a Top Count. Data were analyzed using a four-parameter curve fit with a fixed minimum and maximum experimentally defined as the average positive and negative controls on each plate, and with a hill slope equal to one.

For test [2], the target named is T1, P2Y12 receptor. Briefly: Inhibition of [33P]2MeS-ADP binding to washed human platelet membranes (Assay 1). As to conditions: for inhibition at 10 µM: highest concentration tested 10 μM. Also on record: the P2Y12 receptor, which is found on the surface of platelets; tissue Interstate Blood bank, Memphis, Tenn; host or cells: human platelets from platelet rich plasma. The procedure:
1. Inhibition of [^33P]2MeS-ADP Binding to Washed Human Platelet Membranes. The ability of a test compound to bind to the P2Y12 receptor was evaluated in a platelet membrane binding assay. In this competitive binding assay, the test compound competed against a radiolabelled agonist for binding to the P2Y12 receptor, which is found on the surface of platelets. Inhibition of binding of the labeled material was measured and correlated to the amount and potency of the test compound. Data from this assay are presented in Table F. Platelet rich plasma (“PRP”) was obtained from the Interstate Blood bank, Memphis, Tenn. Platelet rich plasma was prepared from blood units collected in ACD ((prepared by (1) combining: 2.5 g sodium citrate (Sigma S-4641); 1.5 g citric acid (Sigma C-0706); and, 2.0 g dextrose (Sigma G-7528); (2) bringing pH to 4.5; and (3) adding water to bring volume to 100 mL) and using the light spin protocol; this protocol involves centrifugation at room temperature for approximately 20 minutes at speeds up to 160×g. Platelet rich plasma is supplied in units of approximately 200 ml. Each unit is distributed into four 50 mL polypropylene conical tubes for centrifugation, Blood from each donor is maintained separately.
The 50 mL tubes were centrifuged for 15 minutes at 1100 rpm in Sorvall RT6000D (with H1000B rotor). Internal centrifuge temperature was maintained at approximately room temperature (22-24° C.). This spin pelleted cellular components remaining from the PRP preparation. The supernatant was decanted into fresh 50 mL tubes. To avoid carry over of cellular components following the room temperature centrifugation, approximately 5 mL of PRP was left in the tube and discarded. The tubes were capped and inverted 2-3 times and allowed to stand at room temperature for at least 15 minutes following inversion.
Optionally, a Coulter Counter may be used to count platelets from the resting samples during the resting phase. Normal human platelet counts are expected to range from 200,000 to 400,000 per μL of PRP supernatant.
The 50 mL tubes containing PRP supernatant were centrifuged for 15 minutes at 2300-2400 rpm to loosely pellet the platelets. The supernatant from this spin was decanted immediately into a clean cell culture bottle (Corning bottle) and saved in case further centrifugation was needed. The pellet of each tube was resuspended in 2-4 mL of Wash buffer (pH 6.5) (1 L prepared new daily—134 mM NaCl (Sigma S-5150); 3 mM KCl (Sigma P-9333); 1 mM CaCl2 (JT Baker 1311-01); 2 mM MgCl2 (Sigma M-2670); 5 mM glucose (EM 4074-2); 0.3 mM NaH2PO4 (Sigma S-9638)/12 mM NaHCO3 (J T Baker 3506-01); 5 mM HEPES pH 7.4 (Gibco 12379-012); 0.35% BSA (Sigma A-7906); 330 mg Heparin (bovine lung, Sigma H-4898); and 30 mL of ACD) by repeated gentle aspiration using disposable polypropylene sample pipettes.
Wash buffer (pH 6.5) was added to each tube to bring the volume to approximately 40 mL. Each tube was incubated for at least 15 minutes at 37° C.
The tubes were then centrifuged again for 15 minutes at 2300-2400 rpm to loosely pellet the platelets. The supernatant was decanted and discarded. The pellet was resuspended in 2-4 mL of Assay buffer (pH 7.4) (1 L volume—134 mM NaCl; 3 mM KCl; 1 mM CaCl2; 2 mM MgCl2; 5 mM glucose; 0.3 mM NaH2PO4/12 mM NaHCO3; 5 mM HEPES pH 7.4; and 0.35% BSA) by repeated aspiration using disposable polypropylene sample pipettes.
The pooled platelet preparation was counted using a Coulter Counter. The final concentration of platelets was brought to 1×10^6 per μL using Assay buffer pH 7.4. The platelets were rested for a minimum of 45 minutes at 37° C. before use in the assay.
In one embodiment, the compounds were tested in 96-well microtiter filterplates (Millipore Multiscreen-FB opaque plates, #MAFBNOB50). These plates were used in the assay and pre-wet with 50 μL of Assay buffer pH 7.4 then filtered through completely with a Millipore plate vacuum. […]

The mark [3] stands for this setting: washed human platelet membranes.

pIC50, pKi: −log10 of the molar value. Where “and” joins values, the source holds several entries; their conditions need not be identical. Equal entries are not always repeated. Bounds are passed on as bounds.

On to `CCc1cc2c(N3CCN(C(=O)c4ccc(-c5ccccc5)cc4)CC3)nc(NCCC(=O)O)nc2s1` [Example 24, N-{4-[4-(1,1′-Biphenyl-4-ylcarbonyl)piperazin-1-yl]-6-ethylthieno[2,3-d]pyrimidin-2-yl}-beta-alanine], for which, at P2Y12 receptor [1], the negative-log IC50 (pIC50) was 7.88, the pKi was 8.10 and the inhibition at 10 µM was found to be 85%.
Take `CCc1cc2c(N3CCN(C(=O)Cc4ccccc4)CC3)nc(NCCCc3ccccc3)nc2s1` [Example 7, 6-Ethyl-4-[4-(phenylacetyl)piperazin-1-yl]-N-(3-phenylpropyl)thieno[2,3-d]pyrimidin-2-amine]: the inhibition at 10 µM at P2Y12 receptor [2] turned out to be 37.4%. Moreover, the negative-log IC50 (pIC50) on P2Y12 receptor [2] (setting [3]) was less than 5.00.
`CCOC(CCNc1nc(N2CCN(C(=O)c3ccc(-c4ccccc4)cc3)CC2)c2cc(CC)sc2n1)OCC` [Example 22, 4-[4-(1,1′-Biphenyl-4-ylcarbonyl)piperazin-1-yl]-N-(3,3-diethoxypropyl)-6-ethylthieno[2,3-d]pyrimidin-2-amine]: on P2Y12 receptor [1], the pIC50 is 6.86, the negative-log Ki (pKi) is 7.09 and the inhibition at 10 µM turned out to be 86%.
At P2Y12 receptor [2], `CCc1cc2c(N3CCN(C(=O)Cc4ccccc4)CC3)nc(NCc3ccco3)nc2s1` [Example 8, 6-Ethyl-N-(2-furylmethyl)-4-[4-(phenylacetyl)piperazin-1-yl]thieno[2,3-d]pyrimidin-2-amine] showed an inhibition at 10 µM of 42.2%. On P2Y12 receptor [2] (setting [3]), this compound gave a pIC50 of 5.01 and a pKi of 5.03.
In the case of `CCc1cc2c(N3CCN(C(=O)c4ccc(-c5ccccc5)cc4)CC3)nc(NCCN(C)C)nc2s1` [Example 28, N′-{4-[4-(1,1′-biphenyl-4-ylcarbonyl)piperazin-1-yl]-6-ethylthieno[2,3-d]pyrimidin-2-yl}-N,N-dimethylethane-1,2-diamine], at P2Y12 receptor [1], the negative-log IC50 (pIC50) is 7.36 and 7.33; the pKi was 7.57 and 7.54; the “[33P]-2MeS-ADP Binding to Recombinant Human P2Y12 Membranes (Assay 3) % Inhibition” value came to 98.44%; the inhibition at 10 µM amounted to 92.3%.
Consider `CCc1cc2c(N3CCN(C(=O)c4cccc(-c5ccccc5)c4)CC3)nc(NC(CO)CO)nc2s1` [Example 32, 2-({4-[4-(1,1′-biphenyl-3-ylcarbonyl)piperazin-1-yl]-6-ethylthieno[2,3-d]pyrimidin-2-yl}amino)propane-1,3-diol], for which, on P2Y12 receptor [1], the negative-log IC50 (pIC50) was 7.02, the negative-log Ki (pKi) was 7.29 and the inhibition at 10 µM was found to be 96.5%.
In the case of `CCc1cc2c(N3CCN(C(=O)Cc4ccccc4)CC3)nc(NC3CCCC3)nc2s1` [Example 12, N-Cyclopentyl-6-ethyl-4-[4-(phenylacetyl)piperazin-1-yl]thieno[2,3-d]pyrimidin-2-amine], the inhibition at 10 µM at P2Y12 receptor [2] was determined as 43.6%. The compound further had a pIC50 at P2Y12 receptor [2] (setting [3]) of less than 5.00.
`CCc1cc2c(N3CCN(C(=O)Cc4ccccc4)CC3)nc(NC3CCCCC3)nc2s1` [Example 10, N-Cyclohexyl-6-ethyl-4-[4-(phenylacetyl)piperazin-1-yl]thieno[2,3-d]pyrimidin-2-amine]: on P2Y12 receptor [2], the inhibition at 10 µM amounted to 37.3%. For the same compound, at P2Y12 receptor [2] (setting [3]), the pIC50 was less than 5.00.
`CCc1cc2c(N3CCN(C(=O)Cc4ccccc4)CC3)nc(NCc3ccccc3)nc2s1` [Example 15, N-benzyl-6-ethyl-4-[4-(phenylacetyl)piperazin-1-yl]thieno[2,3-d]pyrimidin-2-amine] yielded an inhibition at 10 µM on P2Y12 receptor [2] of 44%. For the same compound, the negative logarithm of the IC50 (pIC50) on P2Y12 receptor [2] (setting [3]) was less than 5.00.
Consider `CCc1cc2c(N3CCN(C(=O)c4ccc(-c5ccccc5)cc4)CC3)nc(NCCC(=O)NC(CO)CO)nc2s1` [Example 25, N^3-{4-[4-(1,1′-Biphenyl-4-ylcarbonyl)piperazin-1-yl]-6-ethylthieno[2,3-d]pyrimidin-2-yl}-N˜1˜-[2-hydroxy-1-(hydroxymethyl)ethyl]-beta-alaninamide], for which, at P2Y12 receptor [1], the pIC50 was 7.52, the pKi was 7.77 and the inhibition at 10 µM stood at 94%.
As to `CCc1cc2c(N3CCN(C(=O)CC(F)(F)F)CC3)nc(NC[C@@H](O)CO)nc2s1` [Example 36, (2R)-3-({6-Ethyl-4-[4-(3,3,3-trifluoropropanoyl)piperazin-1-yl]thieno[2,3-d]pyrimidin-2-yl}amino)propane-1,2-diol], on P2Y12 receptor [1], the pIC50 is 5.98 and 5.71; the negative-log Ki (pKi) is 6.25 and 6.00; the “[33P]-2MeS-ADP Binding to Recombinant Human P2Y12 Membranes (Assay 3) % Inhibition” value was determined as 70.7%; the inhibition at 10 µM stood at 75.7%.
